Data set [1] has as its system plasma proteins. As to conditions: in vivo; cited from earlier work.
The conditions of data set [2]: cited from earlier work; for solubility in water: free drug, 25° C.
Data set [3] has as its system 3D7 cells synchronized at ring stage. Briefly: In vitro antimalarial growth inhibition assay (GIA), flow cytometry after 48 h. In kind it is cell-based, P. falciparum. As to conditions: Plasmodium falciparum, 3D7, 48 h. Here is the method:
Since P. falciparum I usually asynchronous during in vitro culture, the generation of highly synchronized parasite cultures is requested to investigate their pharmacological properties in vitro. […] Samples of the PACs were incubated with the cells for 48 h and then parasitemia was evaluated by flow cytometry after labelling parasite nuclei with fluorescence (growth inhibition assay, GIA).
PACs loaded with atovaquone were analysed with 3D7 cells synchronized at ring stage. Samples were incubated with the cells for 48 h and then parasitemia was evaluated by flow cytometry after labelling parasite nuclei with fluorescence (growth inhibition assay, GIA). The pharmacological activity of atovaquone is expressed in terms of drug concentration needed to inhibit 50% of the cell population (IC50) (FIG. 9).

The conditions of data set [4]: free drug; cited from earlier work.
The nature of data set [5]: Evolution with time of optical density (Do at 405 nm) of curcumin solutions in PBS pH 7.4 at 37° C. It counts as physicochemical. As to conditions: PBS pH 7.4, 37° C.
The nature of data set [6]: Dynamic Light Scattering (DLS) mean size of PACs. In kind it is physicochemical. As to conditions: ibuprofen formulations by direct dissolution, 2 h after preparation.

≈ marks a conversion by molar mass, not a printed value.

In the case of `O=C1C(O)=C([C@H]2CC[C@H](c3ccc(Cl)cc3)CC2)C(=O)c2ccccc21` [Atovaquone], in data set [1], the “bound to plasma proteins” value is recorded as 99.9%. Besides, the “solubility class in water (free drug)” value in data set [2] is reported as “practically insoluble”. For the same molecule, in data set [3], 0.00084 µM corresponded to half-maximal inhibition (IC50). The LogP in data set [4] is reported as 5.8.

On to `COc1cc(/C=C/C(=O)CC(=O)/C=C/c2ccc(O)c(OC)c2)ccc1O` [Curcumin, curcumin], for which the macroscopic aspect result (curcumin 5 mg/ml, direct dissolution in aqueous phase (Example 3)) is “slightly yellow and less turbid suspension”. Moreover, the “solubility class in water (free drug)” value in data set [2] is recorded as “practically insoluble”. For the same molecule, the solubility in water in data set [2] was under 1 µg/mL. The half-maximal inhibitory concentration (IC50) in data set [3] was determined as 14.2 µM. Further, the “optical density (Do at 405 nm)” value was determined as 0.275 in data set [5] (With BSA (1%), curcumin 2 μg/mL, 1 h); 0.214 in data set [5] (With BSA (1%), curcumin 2 μg/mL, 24 h); 0.437 in data set [5] (With BSA (1%), curcumin 2 μg/mL, 96 h); 1.102 in data set [5] (With BSA (1%), curcumin 10 μg/mL, 1 h); 1.007 in data set [5] (With BSA (1%), curcumin 10 μg/mL, 24 h); 0.701 in data set [5] (With BSA (1%), curcumin 10 μg/mL, 96 h). Besides, the “optical density (Do at 405 nm)” value in data set [5] (With BSA (1%), curcumin 20 μg/mL, 1 h) is reported as 1.875; in data set [5] (With BSA (1%), curcumin 20 μg/mL, 24 h), 1.508; in data set [5] (With BSA (1%), curcumin 20 μg/mL, 96 h), 0.899; in data set [5] (Without BSA, curcumin 2 μg/mL, 1 h) it was 0.068; in data set [5] (Without BSA, curcumin 2 μg/mL, 24 h) it was 0.019; in data set [5] (Without BSA, curcumin 2 μg/mL, 96 h) it was 0.001. Also, the “optical density (Do at 405 nm)” value in data set [5] (Without BSA, curcumin 10 μg/mL, 1 h) was found to be 0.321; in data set [5] (Without BSA, curcumin 10 μg/mL, 24 h), 0.097; in data set [5] (Without BSA, curcumin 10 μg/mL, 96 h), 0.064; in data set [5] (Without BSA, curcumin 20 μg/mL, 1 h), 0.717; in data set [5] (Without BSA, curcumin 20 μg/mL, 24 h) it was 0.253; in data set [5] (Without BSA, curcumin 20 μg/mL, 96 h) it was 0.113.

As to `CC(C)Cc1ccc(C(C)C(=O)O)cc1` (stereo not shown) [Ibuprofen], in data set [6], the “Cumulant DLS diameter” value is >1,000,000 nm. Moreover, the “Macroscopic aspect 2 h after dissolution” value (ibuprofen 5 mg/mL, polymer 45 mg/mL, direct dissolution in water, room temperature) is reported as “Macroscopic crystals”. For the same molecule, the solubility in water in data set [2] is 0.21 µg/mL (≈ 1.02 µM).

Turning to `CCCSc1nc(N[C@@H]2C[C@H]2c2ccc(F)c(F)c2)c2nnn([C@@H]3C[C@H](OCCO)[C@@H](O)[C@H]3O)c2n1` [Ticagrelor], the LogP in data set [4] is recorded as 2.28.

Consider Ivermectin, for which, in data set [4], the lipophilicity (LogP) was 5.83.

Source of the values: patent US20240374740A1, “POLY AMPHIPHILIC COMPLEXES FOR THE DELIVERY OF A HYDROPHOBIC ACTIVE AGENT, COMPOSITIONS AND METHODS” (Université de Liège, priority 2021, published 2024).
